In patent US10799521B2, “Use of icaritin in preparing medicament for preventing or treating hematocytopenia” (Lunan Pharmaceutical Group Corporation, priority 2013, dated 2020):
Marks after values point to notes of the source that are not given here.

How the values were obtained:
NOD/Ltj mice = test: Effect on the white blood cells and platelets in NOD mice; assay type: in vivo; conditions: 15 days
Experimental: Non-obese diabetic (NOD) mice are a large mouse strains, including NOD/Scid, NOD/Ltj mice, etc. The NOD/Ltj mice used in this experiment are mice with an abnormal immune system in which platelets and white blood cells are obviously lower than those in normal mice.
5-Week-old healthy NOD mice, after adaptive feeding for one week, were randomly divided into 4 groups:
Group I was the blank control group, totally 13 mice; and was administered intragastrically with normal saline in the same volume of interleukin daily;
Group II was the positive control group, totally 13 mice, and was administered intragastrically with 10.0 mg/kg of interleukin daily;
Group III was the low-dose icaritin group, totally 13 mice, and was administered intragastrically with 30 mg/kg of icaritin daily;
Group IV was the high-dose icaritin group, totally 13 mice, and was administered intragastrically with 60 mg/kg of icaritin daily.
Each group was administered once a day for consecutively 15 days. The mice were anaesthetized (with 3% pentobarbital sodium, by intraperitoneal injection, at 0.1-0.15 ml per animal). 1 ml of blood wass sampled from abdominal aorta into an anticoagulation tube for routine blood test.

[1] = system: model of thrombocytopenia induced by cyclophosphamide in mice; test: Thrombocytopenia induced by cyclophosphamide in mice (platelets in peripheral blood); assay type: in vivo, Balb/C mice; conditions: cyclophosphamide model mice, 3 weeks, x ± s
Experimental: 72 Balb/C mice were selected, weighed, and randomly divided into 6 groups, i.e. the normal group, the model control group, the icariin group (positive control group), and the icaritin administration groups (high-, medium-, and low-dose groups), with 12 mice in each group. […] One week before starting to establish the model, each group was administered with the following therapeutic agents:
The normal group: administered subcutaneously with the same volume of normal saline;
The model control group: administered subcutaneously with the same volume of normal saline;
(§1) The icariin group: administered by subcutaneous injection with 2 mg/kg of icariin;
(§2) The high-dose icaritin group: administered by subcutaneous injection with 10 mg/kg of the icaritin injection of Example 11;
(§3) The medium-dose icaritin group: administered by subcutaneous injection with 5 mg/kg of the icaritin injection of Example 11;
(§4) The low-dose icaritin group: administered by subcutaneous injection with 1 mg/kg of the icaritin injection of Example 11.
Each group was administered once a day and fed normally. After consecutive administration for 3 weeks, the mice were anesthetized, and blood was sampled to measure the number of platelets and determine the effect of icaritin on the number of platelets (PLT) in the peripheral blood.

[2] = system: tumor-bearing mice (mice ascites tumor s180 cells); test: Effect on chemotherapy-induced bone marrow suppression in tumor-bearing mice (routine blood test); assay type: in vivo, Kunming mice; conditions: after 10 days once daily, docetaxel 75 mg/m^2/d iv, Tegafur/Gimeracil/Oteracil capsules 222.2 mg/m^2/d intragastric, icaritin 10 mg/kg/d iv
Experimental: Mice ascites tumor s180 cells were conventionally incubated in 1640 culture medium, at 37° C., 5% CO2, and passaged once every two days in average. The cells in the logarithmic growth phase were prepared into a single-cell suspension having a density of 3.0×10^7 cells/ml with normal saline, which was injected into the abdominal cavities of mice under sterile conditions. Seven days after inoculation, significant swelling of the abdominal cavities of mice can be seen. As this time, the mice were executed by cervical vertebra luxation, put into a beaker containing 75% ethanol and soaked for 2-3 minutes. The sterilized mice were placed into an ultraclean bench, and the abdomens were exposed. The ascites was drawn with a sterile syringe and put into a sterile reagent bottle for further use. The above ascites was counted with trypan blue, diluted with normal saline to adjust to 2.0×10^7 cells/ml, and inoculated at the right armpit of the mice with 0.2 ml for each mouse. The inoculated mice were randomly divided into 6 groups, with 10 animals in each group and half male and half female. Group 1, the model control group: the test animals were intraperitoneally injected with0.9% normal saline (same for the following experiments); Group 2, the docetaxel group: 75 mg/m^2/d of docetaxel; Group 3, the Tegafur, Gimeracil and Oteracil Potassium Capsules group: 222.2 mg/m^2/d of Tegafur, Gimeracil and Oteracil Potassium Capsules; Group 4, the icaritin group: 10 mg/kg/d of the icaritin microemulsion formulation; Group 5, the D+I group (docetaxel+icaritin group): 75 mg/m^2/d of docetaxel+[…] of icaritin; Group 6, the T +I group (Tegafur, Gimeracil and Oteracil Potassium Capsules+icaritin group): 222.2 mg/m^2/d of Tegafur, Gimeracil and Oteracil Potassium Capsules+10 mg/kg/d of icaritin. Docetaxel and icaritin were administered by tail intravenous injection with an administration volume of 10 ml/kg for each. Tegafur, Gimeracil and Oteracil Potassium Capsules was intragastrically administered with an administration volume of 40 ml/kg. Each group was administered once a day for totally 10 days. During the test, the animals were observed every day for their food and water uptake, survival conditions and behaviors, and measured for their body weights every day. After the test was ended, the mice were anaesthetized and anatomized. Blood was collected from abdominal aorta for routine blood test, and the total number of white blood cells, the total number of platelets and the total number of neutrophils were determined.

[3] = system: active immune thrombocytopenia mice; test: Active immune thrombocytopenia in mice (platelets in peripheral blood); assay type: in vivo, Balb/C mice; conditions: x ± s
Experimental: 72 Balb/C mice were selected, weighed, and randomly divided into […] administration groups, i.e. the normal group, the model control group, the icariin group (positive control group), and the icaritin administration groups (high-, medium-, and low-dose groups), with 12 mice in each group. […] On the second day after the model was established, each group was administered with the following therapeutic agents: The normal group: administered intragastrically with the same volume of normal saline; The model control group: administered intragastrically with the same volume of normal saline; The […]: […]; The high-dose icaritin group: […] Example 9; The medium-dose icaritin group: […] Example 9; The low-dose icaritin group: […] Each of the administration groups was administered once a day and fed normally. After establishing the model three times, each administration group was continued to be administered for one week. The mice were anesthetized, and blood was sampled to measure the number of platelets and determine the effect of icaritin on the number of platelets (PLT) in the peripheral blood.

chronic ITP model rats = test: Platelet count in chronic ITP model rats (anti-rat platelet serum); assay type: in vivo, Wistar rats
Experimental: Establishment of chronic ITP model: Wistar rats were selected to establish the model by injecting rabbit anti-rat platelet serum (APS). […] 50 Rats in which the model was successfully established were selected, weighed, and randomly divided into 5 groups, i.e. the model control group, the icariin group (positive control group), and the icaritin administration groups (high-, medium- and low-dose groups), with 10 rats in each group. The groups were administered with the following therapeutic agents, respectively.
The model control group: administered by subcutaneous injection with the same volume of normal saline;
as §1, §2, §3, §4
At 1 h after the last administration, blood was sampled from the venous plexus by inserting a disposable 20 μl blood collection tube into the inner canthus of the […].

[4] = high dose 60 mg/kg intragastrically daily
[5] = low dose 30 mg/kg intragastrically daily
[6] = low dose 1 mg/kg sc (injection of Example 11)
[7] = medium dose 5 mg/kg sc (injection of Example 11)

## COc1ccc(-c2oc3c(CC=C(C)C)c(O)cc(O)c3c(=O)c2O)cc1 [Icaritin]
NOD/Ltj mice; [4]
  Platelets: 780.2 ± 46.5 ^##$$ 10^9/L
  White blood cells: 4.225 ± 0.51^##$ 10^9/L
NOD/Ltj mice; [5]
  Platelets: 730.5 ± 34.6^##$ 10^9/L
  White blood cells: 3.242 ± 0.45 ^#$ 10^9/L
[1]; [6]
  PLT: 633.5 ± 43.2 10^9/L
[1]; [7]
  PLT: 725.9 ± 66.7 10^9/L
[2]
  Neutrophils: 1.316 ± 0.15^#**^$$ 10^9/L
  Platelets: 687.4 ± 37.2^## 10^9/L
  White blood cells: 3.530 ± 0.31^##**^$$ 10^9/L
[3]; high dose 100 mg/kg intragastric (tablets of Example 9)
  PLT: 1193.4 ± 95.4 10^9/L
[3]; low dose 10 mg/kg intragastric (tablets of Example 9)
  PLT: 862.7 ± 75.6 10^9/L
[3]; medium dose 50 mg/kg intragastric (tablets of Example 9)
  PLT: 983.5 ± 85.7 10^9/L
Chronic ITP model rats; high dose 10 mg/kg sc (injection of Example 11)
  Platelet count: 819.96 ± 61.8**^ΔΔ ×10^9
Chronic ITP model rats; [6]
  Platelet count: 680.84 ± 50.5 ×10^9
Chronic ITP model rats; [7]
  Platelet count: 720.4 ± 60.3**^Δ ×10^9
